{"source": "patent US20220273016A1", "about": "“HUMAN MILK OLIGOSACCHARIDES FOR CONTROL OF DIETARY RESPONSE AND METABOLIC PHENOTYPE” (The Regents of the University of California, priority 2019, published 2022)", "key": {"[1]": {"system": "sterol regulatory element binding protein-1c (SREBP-1c)", "experiment": "Hepatic gene expression of SREBP-1c (real-time PCR)", "type": "in vivo, mice", "settings": "10% 2′-FL supplementation diet, 8 weeks", "experimental": "(§1) Body composition for fat and lean mass (FIGS. 2A and 2B) was analyzed in live animals using EchoMRI-100 ™ from Echo Medical Systems (Houston, Tex.) every two weeks in mice fed an LF or HF with or without 10% 2′-FL supplementation. To measure the size of adipocytes (FIG. 2C), mesenteric adipose tissue collected at euthanasia was fixed in 10% neutral-buffered formalin (Thermo Fisher Scientific, Waltham, Mass.) overnight and transferred to 70% ethanol for one day. Afterwards, the tissues were processed in a routine manner for paraffin sections (Tissue Tek VIP Tissue Processor; Sakura Finetek USA, Torrance, Calif.). Paraffin-embedded sections (5 μm) were cut and stained with H&E (Sigma-Aldrich) for microscopic examination (Olympus BX60, Waltham, Mass.) at 20× magnification. To quantitate adipocyte size (FIG. 2C), the H&E-stained sections were analyzed using the ImageJ software (National Institutes of Health, Bethesda, Md.). […] Genes of interest were analyzed according to the 2^−ΔΔT method and compared with control samples. […]"}, "[2]": {"system": "peroxisome proliferator-activated receptor γ (PPAR γ)", "experiment": "Hepatic gene expression of PPARγ (real-time PCR)", "type": "in vivo, mice", "settings": "10% 2′-FL supplementation diet, 8 weeks", "experimental": "as §1"}, "[3]": {"experiment": "CCK feeding study (food intake after i.p. CCK)", "type": "in vivo, mice", "settings": "HF + 10% 2′-FL, CCK i.p. vs saline, 6 h fast", "experimental": "(§2) After 4 weeks on respective diets, 2′-FL sensitivity to the satiating effect of the gut peptide CCK was tested (FIG. 3A). Experiments were performed at the onset of the dark phase. Mice were fasted on wire-bottom cages for 6 h during the light phase. At the onset of the dark phase, CCK (octapeptide, sulfated, Bachem, Torrance, Calif., 100 μl at […]; i.p.) or saline (100 μl; i.p.) was administered. Food was placed in the cage and food intake recorded after 20 min. After 6 weeks of respective diets, c-Fos expression in hindbrain was determined. (FIGS. 3B and 3C). Mice were fasted for 4 h, ip injected with CCK ([…]), and euthanized using deep anesthesia induced with pentobarbital (Fatal Plus, Vortech Pharmaceuticals, Dearborn, Mich., USA; 300 mg/kg; i.p.). The hindbrain was collected and post-fixed in 4% paraformaldehyde (Electron Microscopy Sciences, Hatfield, Pa.). Hindbrains were cryosectioned at 30 μm thickness and stained for c-Fos protein expression in the NTS and AP regions. […] Images were acquired using a confocal microscope (Leica TCS SP8 STED 3×; Leica, Wetzlar, Germany) and quantified in a blinded manner using Imaris Software (Bitplane, Zurich, Switzerland). […]"}, "[4]": {"experiment": "Gut permeability of cecum in Ussing chambers (FD-4 flux)", "type": "in vivo, mice", "settings": "10% 2′-FL supplementation diet, 8 weeks, flux at 90 min", "experimental": "(§3) To measure gut permeability (FIGS. 4A and 4B), a section of cecum was opened along the mesenteric border and mounted in Ussing chambers (Physiologic Instruments, San Diego, Calif.), exposing 0.3 cm^2 of tissue surface area to 2.5 ml of oxygenated Krebs-glucose (10 mM) and Krebs-mannitol (10 mM) at 37° C. on the serosal and luminal sides, respectively. The paracellular pathway and transcellular pathway were measured as the flux of FITC-4000 (FD-4; Sigma-Aldrich) and horseradish peroxidase (HRP Type VI; Sigma Aldrich), respectively. FD-4 ([…]) and HRP ([…]) were added to the mucosal chamber, and samples were collected from the serosal chamber every 30 min for 2 h. The concentration of FD-4 was measured via fluorescence at excitation of 485 nm and emission of 538 nm. O-dianisidine substrate was used to detect HRP at absorbance 450 nm. Data are shown as flux at 90 min. Gene expression of IL-22 in the ileum (FIG. 4C) and MCP-1 (FIG. 4E) in adipose tissue were measured as described in Example 2. LBP levels (FIG. 4D) were detected in plasma via enzyme-linked immunosorbent assay according to manufacturer's recommendation (Biometec). […] For FIGS. 4A-4E, statistical analysis was performed by using Prism software (Prism 8.4; GraphPad Software, La Jolla, Calif.). Data are presented as means SEMs. ROUT test was used to exclude outliers. Differences were considered significant if P<0.05."}, "[5]": {"experiment": "Body composition (EchoMRI fat and lean mass) and adipocyte size in mice fed LF or HF with or without 10% 2′-FL", "type": "in vivo", "settings": "10% 2′-FL supplementation diet, 8 weeks", "experimental": "Body composition for fat and lean mass (FIGS. 2A and 2B) was analyzed in live animals using EchoMRI-100 ™ from Echo Medical Systems (Houston, Tex.) every two weeks in mice fed an LF or HF with or without 10% 2′-FL supplementation. To measure the size of adipocytes (FIG. 2C), mesenteric adipose tissue collected at euthanasia was fixed in 10% neutral-buffered formalin (Thermo Fisher Scientific, Waltham, Mass.) overnight and transferred to 70% ethanol for one day. Afterwards, the tissues were processed in a routine manner for paraffin sections (Tissue Tek VIP Tissue Processor; Sakura Finetek USA, Torrance, Calif.). Paraffin-embedded sections (5 μm) were cut and stained with H&E (Sigma-Aldrich) for microscopic examination (Olympus BX60, Waltham, Mass.) at 20× magnification. To quantitate adipocyte size (FIG. 2C), the H&E-stained sections were analyzed using the ImageJ software (National Institutes of Health, Bethesda, Md.). For hepatic gene expression of peroxisome proliferator-activated receptor γ (PPAR γ) and sterol regulatory element binding protein-1c (SREBP-1c) (FIGS. 2D and 2E), total RNA from liver samples was extracted via the TRIzol method (Life Technologies, Grand Island, N.Y.). cDNAs were synthesized from […] of purified RNA samples using iScript cDNA synthesis kit (Bio-Rad, Hercules, Calif.) following the manufacturer's protocol. Real-time PCR was performed with the Quantstudio 6 Flex real-time PCR machine using SyberGreen master mix (Life Technologies) for detection. R-Actin and GAPDH were used as housekeeping genes. Genes of interest were analyzed according to the 2^−ΔΔT method and compared with control samples.\nFor FIGS. 2A-2E, statistical analysis was performed by using Prism software (Prism 8.4; GraphPad Software, La Jolla, Calif.). Data are presented as means±SEMs. ROUT test was used to exclude outliers. Differences were considered significant if P<0.05."}, "[6]": {"system": "lipopolysaccharide-binding protein (LBP)", "experiment": "Plasma LBP level by enzyme-linked immunosorbent assay", "type": "in vivo, mice", "settings": "HF + 10% 2′-FL in drinking water, 6 weeks", "experimental": "as §3"}, "c-Fos": {"system": "c-Fos", "experiment": "c-Fos expression in hindbrain (NTS and AP) after CCK injection", "type": "in vivo, mice", "settings": "10% 2′-FL supplementation, CCK i.p.", "experimental": "as §2"}, "[7]": {"experiment": "Body weight and energy intake in mice fed a high-fat diet with 2′-FL in drinking water", "type": "in vivo, Male C57/BL6 mice", "settings": "2′-FL 10% (w/v) in drinking water, 6 wk, vs HF group", "experimental": "Animals were maintained and handled in accordance with protocols approved by the Institutional Animal Care and Use Committee (University of California, Davis). Male C57/BL6 mice (n=6/group; 6 week old, Harlan, San Diego, Calif.) were split into three weight-matched groups and fed either a low-fat (LF; 10% kcal as fat), high-fat (HF; 45% kcal as fat), or HF diet with 2′-FL (HF_2′-FL) at 10% (w/v) in drinking water for 6 wk. All animals were housed individually at 22° C. with 12 h:12 h light-dark cycles. Body weight and food intake were measured twice a week. Statistical analysis was performed using Prism software (Prism 8.1.2; GraphPad Software). Six-week HF feeding increased energy intake compared to the LF groups but without statistical significance (FIG. 1B). […] For FIGS. 1A and 1B, data are presented as means±SEMs. ROUT test was used to exclude outliers. Differences were considered significant if P<0.05."}, "[8]": {"system": "monocyte chemoattractant protein-1 (MCP-1)", "experiment": "Gene expression of MCP-1 in adipose tissue (real-time PCR)", "type": "in vivo, mice", "settings": "HF + 10% 2′-FL in drinking water, 6 weeks", "experimental": "as §3"}}, "note": "“Also recorded” adds a separate entry of the source."}
{"substance": "2′-fucosyllactose [2′-FL]", "values": [{"measurement": "gene expression of SREBP-1c in the liver", "setting": "[1]", "value": "downregulates"}, {"measurement": "gene expression of PPAR γ in the liver", "setting": "[2]", "value": "downregulates"}, {"measurement": "sensitivity to the satiating effect of CCK (food intake after 20 min)", "setting": "[3]", "value": "restores sensitivity to CCK"}, {"measurement": "paracellular permeability (FD-4 flux in cecum)", "setting": "[4]", "value": "decreased paracellular permeability"}, {"measurement": "adipogenesis (adipocyte size in visceral adipose tissue)", "setting": "[5]", "value": "suppresses adipogenesis"}, {"measurement": "adiposity (fat body mass)", "setting": "[5]", "value": "reduced adiposity"}, {"measurement": "lean mass", "setting": "[5]", "value": "preserving lean mass"}, {"measurement": "circulating LPB levels", "setting": "[6]", "value": "reduced circulating LPB levels"}, {"measurement": "intestinal satiety signals (c-Fos immunopositive cells in NTS and AP)", "setting": "c-Fos", "value": "restores intestinal satiety signals"}, {"measurement": "energy intake", "setting": "[7]; HF diet (45% kcal as fat)", "value": "suppressed"}, {"measurement": "body weight", "setting": "[7]; HF diet", "value": "lower body weight compared with the HF group"}, {"measurement": "expression of inflammatory cytokines in adipocytes (MCP-1 gene expression in adipose tissue)", "setting": "[8]", "value": "significant decrease of MCP-1 gene expression; also recorded: systemically lowered expression of inflammatory cytokines in adipocytes"}]}
